Laboratory results as given in ChEMBL document CHEMBL4819104, “Discovery of 2-amino-3-amido-5-aryl-pyridines as highly potent, orally bioavailable, and efficacious PERK kinase inhibitors” (Bioorg Med Chem Lett, 2021).
In brackets after ≈: the same amount, converted by molar mass.

Columns and labels:
[1] = Aqueous solubility of the compound; assay type: physicochemical; details: buffer
[2] = Plasma protein binding in human; assay type: ADME, cell-free; details: read-out: PPB (converted)
[3] = Efflux ratio of apparent permeability in human Caco-2 cells; assay type: ADME, cell-based
[4] = Apparent permeability of the compound across apical to basolateral side in human Caco-2 cells; assay type: ADME, cell-based; details: read-out: permeability
[5] = Half life in mouse hepatocytes; assay type: ADME, cell-based, Hepatocyte
[6] = molecular target: T1, Eukaryotic translation initiation factor 2-alpha kinase 3 (Homo sapiens, UniProt Q9NZJ5); experiment: Inhibition of human His-tagged PERK expressed in Escherichia coli assessed as eIF2alpha phosphorylation by TR-FRET assay
T1 sequence (Q9NZJ5 whole entry): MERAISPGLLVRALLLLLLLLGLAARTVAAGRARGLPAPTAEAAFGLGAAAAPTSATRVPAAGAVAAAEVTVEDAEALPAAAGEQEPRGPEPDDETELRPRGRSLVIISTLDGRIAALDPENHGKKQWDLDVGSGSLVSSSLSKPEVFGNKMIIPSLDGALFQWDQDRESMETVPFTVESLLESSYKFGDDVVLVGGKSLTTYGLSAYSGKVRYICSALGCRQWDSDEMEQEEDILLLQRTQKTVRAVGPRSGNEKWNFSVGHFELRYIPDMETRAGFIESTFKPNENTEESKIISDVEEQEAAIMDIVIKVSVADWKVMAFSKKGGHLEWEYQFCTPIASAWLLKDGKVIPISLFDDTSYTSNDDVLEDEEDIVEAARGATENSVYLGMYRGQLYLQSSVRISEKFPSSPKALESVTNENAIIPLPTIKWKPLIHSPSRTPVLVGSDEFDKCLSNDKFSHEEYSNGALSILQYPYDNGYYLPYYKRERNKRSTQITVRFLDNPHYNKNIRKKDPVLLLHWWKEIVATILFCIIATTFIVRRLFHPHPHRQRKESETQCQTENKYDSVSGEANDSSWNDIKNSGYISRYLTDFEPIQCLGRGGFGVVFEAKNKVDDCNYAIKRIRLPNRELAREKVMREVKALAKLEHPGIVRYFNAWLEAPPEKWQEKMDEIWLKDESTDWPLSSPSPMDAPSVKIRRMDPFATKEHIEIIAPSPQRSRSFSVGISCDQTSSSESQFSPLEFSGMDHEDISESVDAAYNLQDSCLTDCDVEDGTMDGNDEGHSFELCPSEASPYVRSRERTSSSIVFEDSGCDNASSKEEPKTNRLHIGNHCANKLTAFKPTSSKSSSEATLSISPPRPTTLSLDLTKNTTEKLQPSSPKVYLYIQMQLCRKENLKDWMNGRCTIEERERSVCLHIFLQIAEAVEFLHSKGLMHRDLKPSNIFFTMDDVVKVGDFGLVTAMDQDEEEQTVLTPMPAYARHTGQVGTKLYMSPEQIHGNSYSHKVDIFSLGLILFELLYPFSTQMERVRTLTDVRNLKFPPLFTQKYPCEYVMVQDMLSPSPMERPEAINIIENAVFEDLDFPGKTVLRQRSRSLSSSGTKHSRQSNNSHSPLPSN

[7] = Plasma protein binding in mouse; assay type: ADME, cell-free; details: read-out: PPB (converted)
[8] = Plasma protein binding in dog; assay type: ADME, cell-free, Canis lupus familiaris; details: read-out: PPB (converted)
[9] = Plasma protein binding in rat; assay type: ADME, cell-free; details: read-out: PPB (converted)
[10] = Half life in human hepatocytes; assay type: ADME, cell-based, Hepatocyte
[11] = Half life in rat hepatocytes; assay type: ADME, cell-based, Hepatocyte
[12] = Half life in dog hepatocytes; assay type: ADME, cell-based, Canis lupus familiaris, Hepatocyte
[13] = molecular target: T2, Receptor-interacting serine/threonine-protein kinase 1 (Homo sapiens) (UniProt Q13546); experiment: Inhibition of wild-type human partial length RIPK1 (M1 to K305 residues) expressed in bacterial expression system assessed as residual activity at 10 uM by Kinomescan method relative to control
T2 sequence (whole entry): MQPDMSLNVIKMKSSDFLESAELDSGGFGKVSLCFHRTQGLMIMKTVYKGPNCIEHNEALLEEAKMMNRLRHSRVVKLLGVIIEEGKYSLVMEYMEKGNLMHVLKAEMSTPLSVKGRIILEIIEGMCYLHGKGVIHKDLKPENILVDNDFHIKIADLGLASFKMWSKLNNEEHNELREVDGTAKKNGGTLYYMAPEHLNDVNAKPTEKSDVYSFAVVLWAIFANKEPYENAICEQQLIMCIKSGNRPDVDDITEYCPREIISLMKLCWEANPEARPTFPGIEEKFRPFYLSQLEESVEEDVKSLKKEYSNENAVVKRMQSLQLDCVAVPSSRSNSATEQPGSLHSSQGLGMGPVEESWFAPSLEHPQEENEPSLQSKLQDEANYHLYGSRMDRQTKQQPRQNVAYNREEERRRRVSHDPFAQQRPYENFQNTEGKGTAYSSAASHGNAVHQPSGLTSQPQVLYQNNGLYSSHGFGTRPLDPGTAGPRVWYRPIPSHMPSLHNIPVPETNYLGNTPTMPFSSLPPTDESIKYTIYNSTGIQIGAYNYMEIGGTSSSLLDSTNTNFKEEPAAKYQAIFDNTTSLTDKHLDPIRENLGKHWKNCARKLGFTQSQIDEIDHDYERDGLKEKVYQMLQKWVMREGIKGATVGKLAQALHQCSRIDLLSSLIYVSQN

[14] = molecular target: Proto-oncogene tyrosine-protein kinase Src (Homo sapiens) (UniProt P12931); experiment: Inhibition of wild-type human partial length SRC (L240 to L536 residues) expressed in bacterial expression system assessed as residual activity at 10 uM by Kinomescan method relative to control
[15] = molecular target: Platelet-derived growth factor receptor beta (Homo sapiens) (UniProt P09619); experiment: Inhibition of wild-type human partial length PDGFRbeta (V582 to Y1009 residues) expressed in bacterial expression system assessed as residual activity at 10 uM by Kinomescan method relative to control
[16] = test system: Tyrosine-protein kinase ABL1 (Homo sapiens), P00519 [F317L]; experiment: Inhibition of human non-phosphorylated ABL1 F317L mutant (S229 to K512 residues) expressed in mammalian expression system assessed as residual activity at 10 uM by Kinomescan method relative to control
[17] = molecular target: Epithelial discoidin domain-containing receptor 1 (Homo sapiens) (UniProt Q08345); experiment: Inhibition of wild-type human partial length DDR1 (R565 to V876 residues) expressed in bacterial expression system assessed as residual activity at 10 uM by Kinomescan method relative to control
[18] = molecular target: Angiopoietin-1 receptor (Homo sapiens) (UniProt Q02763); experiment: Inhibition of wild-type human partial length TIE2 (N804 to T1112 residues) expressed in bacterial expression system assessed as residual activity at 10 uM by Kinomescan method relative to control
[19] = molecular target: Mast/stem cell growth factor receptor Kit (Homo sapiens) (UniProt P10721); experiment: Inhibition of wild-type human partial length KIT (I571 to D952 residues) expressed in bacterial expression system assessed as residual activity at 10 uM by Kinomescan method relative to control
[20] = molecular target: BDNF/NT-3 growth factors receptor (Homo sapiens) (UniProt Q16620); experiment: Inhibition of wild-type human partial length TRKB (Q547 to G838 residues) expressed in mammalian expression system assessed as residual activity at 10 uM by Kinomescan method relative to control
[21] = molecular target: Tyrosine-protein kinase receptor UFO (Homo sapiens) (UniProt P30530); experiment: Inhibition of wild-type human partial length AXL (R497 to Y821 residues) expressed in bacterial expression system assessed as residual activity at 10 uM by Kinomescan method relative to control
[22] = molecular target: Macrophage colony-stimulating factor 1 receptor (Homo sapiens) (UniProt P07333); experiment: Inhibition of wild-type human partial length CSF1R (I564 to S939 residues) expressed in bacterial expression system assessed as residual activity at 10 uM by Kinomescan method relative to control
[23] = molecular target: Aurora kinase B (Homo sapiens) (UniProt Q96GD4); experiment: Inhibition of wild-type human partial length AURKB (D25 to A303 residues) expressed in mammalian expression system assessed as residual activity at 10 uM by Kinomescan method relative to control
[24] = molecular target: T3, Mitogen-activated protein kinase 12 (Homo sapiens) (UniProt P53778); experiment: Inhibition of wild-type human full length p38-gamma (M1 to L367 residues) expressed in mammalian expression system assessed as residual activity at 10 uM by Kinomescan method relative to control
T3 sequence (whole entry): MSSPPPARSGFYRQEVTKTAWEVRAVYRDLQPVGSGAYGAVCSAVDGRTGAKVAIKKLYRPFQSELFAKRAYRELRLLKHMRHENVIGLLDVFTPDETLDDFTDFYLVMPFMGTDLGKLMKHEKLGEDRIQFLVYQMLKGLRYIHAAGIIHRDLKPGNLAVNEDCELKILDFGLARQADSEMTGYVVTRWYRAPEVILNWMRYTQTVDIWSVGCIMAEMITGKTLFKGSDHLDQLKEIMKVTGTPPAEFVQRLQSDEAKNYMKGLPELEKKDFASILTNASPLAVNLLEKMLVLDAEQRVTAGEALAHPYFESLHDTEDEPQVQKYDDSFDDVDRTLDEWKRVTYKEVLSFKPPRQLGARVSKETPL

[25] = Oral bioavailability in mouse at 10 mg/kg; assay type: ADME, organism-based; details: in vivo
[26] = AUC (0 to last) in mouse at 10 mg/kg, po; assay type: ADME, organism-based; set-up: time 0 - last, route oral, dose 10 mg/kg; details: in vivo
[27] = Cmax in mouse at 10 mg/kg, po; assay type: ADME, organism-based; set-up: route oral, dose 10 mg/kg; details: in vivo
[28] = Half life in mouse at 10 mg/kg, po; assay type: ADME, organism-based; details: in vivo

Chain of Proto-oncogene tyrosine-protein kinase Src (Homo sapiens) (P12931 2-536 limits assumed): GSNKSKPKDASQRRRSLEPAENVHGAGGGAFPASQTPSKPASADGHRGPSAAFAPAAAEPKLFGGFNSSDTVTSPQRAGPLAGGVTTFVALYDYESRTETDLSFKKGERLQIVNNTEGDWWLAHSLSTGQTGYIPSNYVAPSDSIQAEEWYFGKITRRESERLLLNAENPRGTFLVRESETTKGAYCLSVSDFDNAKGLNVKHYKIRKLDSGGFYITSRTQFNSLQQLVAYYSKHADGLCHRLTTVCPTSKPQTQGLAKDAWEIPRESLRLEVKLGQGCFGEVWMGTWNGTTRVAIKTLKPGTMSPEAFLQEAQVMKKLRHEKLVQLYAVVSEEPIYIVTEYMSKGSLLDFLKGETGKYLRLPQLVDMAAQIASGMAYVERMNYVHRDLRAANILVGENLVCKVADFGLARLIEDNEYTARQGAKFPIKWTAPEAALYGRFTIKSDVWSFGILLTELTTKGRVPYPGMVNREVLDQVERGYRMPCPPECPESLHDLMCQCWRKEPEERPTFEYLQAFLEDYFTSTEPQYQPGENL
Chain of Tyrosine-protein kinase receptor UFO (Homo sapiens) (P30530 whole entry, the tested form may be a part): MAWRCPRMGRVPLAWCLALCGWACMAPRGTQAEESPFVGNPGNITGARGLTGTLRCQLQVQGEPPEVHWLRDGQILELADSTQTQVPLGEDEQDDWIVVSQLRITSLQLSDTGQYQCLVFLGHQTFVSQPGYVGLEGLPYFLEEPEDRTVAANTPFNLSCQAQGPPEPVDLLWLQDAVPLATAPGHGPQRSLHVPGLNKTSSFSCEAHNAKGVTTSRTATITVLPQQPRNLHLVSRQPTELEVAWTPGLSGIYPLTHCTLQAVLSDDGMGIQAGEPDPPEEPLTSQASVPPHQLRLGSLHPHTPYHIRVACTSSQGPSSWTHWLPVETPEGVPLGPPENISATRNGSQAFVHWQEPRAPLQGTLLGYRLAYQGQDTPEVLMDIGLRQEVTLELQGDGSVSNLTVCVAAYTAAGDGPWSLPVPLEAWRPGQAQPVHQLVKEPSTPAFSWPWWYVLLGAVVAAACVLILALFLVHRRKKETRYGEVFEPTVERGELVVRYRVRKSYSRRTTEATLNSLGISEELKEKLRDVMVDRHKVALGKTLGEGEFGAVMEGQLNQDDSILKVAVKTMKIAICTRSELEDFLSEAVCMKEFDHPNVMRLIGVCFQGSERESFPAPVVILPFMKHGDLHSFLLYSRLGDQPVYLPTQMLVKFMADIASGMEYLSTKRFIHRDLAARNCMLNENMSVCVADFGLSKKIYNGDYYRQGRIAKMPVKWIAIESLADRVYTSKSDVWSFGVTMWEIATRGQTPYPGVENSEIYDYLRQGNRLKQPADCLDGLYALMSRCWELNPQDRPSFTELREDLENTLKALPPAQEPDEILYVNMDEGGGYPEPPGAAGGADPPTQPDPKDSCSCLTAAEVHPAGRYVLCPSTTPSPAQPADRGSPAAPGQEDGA
Chain of Tyrosine-protein kinase ABL1 (Homo sapiens), P00519 [F317L] (P00519 whole entry F317L, the tested form may be a part): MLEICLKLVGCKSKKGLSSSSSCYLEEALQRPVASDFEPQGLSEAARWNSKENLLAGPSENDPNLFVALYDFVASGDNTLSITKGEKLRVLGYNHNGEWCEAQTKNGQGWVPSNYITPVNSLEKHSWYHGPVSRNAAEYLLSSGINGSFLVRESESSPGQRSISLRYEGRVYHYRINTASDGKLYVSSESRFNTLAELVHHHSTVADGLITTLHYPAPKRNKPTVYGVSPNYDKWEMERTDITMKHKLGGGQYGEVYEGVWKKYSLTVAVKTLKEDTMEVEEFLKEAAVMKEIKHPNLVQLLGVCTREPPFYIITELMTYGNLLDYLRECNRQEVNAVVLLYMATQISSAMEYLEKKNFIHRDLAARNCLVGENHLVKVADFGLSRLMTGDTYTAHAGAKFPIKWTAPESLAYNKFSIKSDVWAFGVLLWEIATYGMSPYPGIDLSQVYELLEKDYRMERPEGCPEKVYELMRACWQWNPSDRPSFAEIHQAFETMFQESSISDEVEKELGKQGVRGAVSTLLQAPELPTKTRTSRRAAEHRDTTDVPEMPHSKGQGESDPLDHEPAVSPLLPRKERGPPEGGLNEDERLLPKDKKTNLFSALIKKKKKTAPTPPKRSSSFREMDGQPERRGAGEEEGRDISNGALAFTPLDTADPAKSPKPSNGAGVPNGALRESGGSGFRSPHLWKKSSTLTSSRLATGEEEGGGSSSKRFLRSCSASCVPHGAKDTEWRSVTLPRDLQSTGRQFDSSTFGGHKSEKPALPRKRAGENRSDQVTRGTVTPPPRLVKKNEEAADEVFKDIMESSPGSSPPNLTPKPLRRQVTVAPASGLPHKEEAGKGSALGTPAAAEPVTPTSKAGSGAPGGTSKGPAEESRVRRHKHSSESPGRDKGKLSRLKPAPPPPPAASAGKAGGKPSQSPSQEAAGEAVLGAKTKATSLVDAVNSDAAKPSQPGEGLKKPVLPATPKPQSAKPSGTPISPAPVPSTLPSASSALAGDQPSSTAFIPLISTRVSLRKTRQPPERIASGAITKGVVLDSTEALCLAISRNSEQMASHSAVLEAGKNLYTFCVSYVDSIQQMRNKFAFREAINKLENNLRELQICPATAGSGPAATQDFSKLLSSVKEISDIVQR
Chain of Aurora kinase B (Homo sapiens) (Q96GD4 whole entry, the tested form may be a part): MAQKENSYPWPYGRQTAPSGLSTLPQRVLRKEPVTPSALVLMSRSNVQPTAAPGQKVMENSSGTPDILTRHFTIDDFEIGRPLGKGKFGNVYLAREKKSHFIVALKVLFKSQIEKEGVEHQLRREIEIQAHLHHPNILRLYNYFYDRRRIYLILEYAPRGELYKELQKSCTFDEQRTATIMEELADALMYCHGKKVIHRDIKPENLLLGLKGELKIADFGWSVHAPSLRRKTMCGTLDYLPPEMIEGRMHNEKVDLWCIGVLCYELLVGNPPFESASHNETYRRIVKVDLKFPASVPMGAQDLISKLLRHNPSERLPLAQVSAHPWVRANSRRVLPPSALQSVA
Chain of BDNF/NT-3 growth factors receptor (Homo sapiens) (Q16620 32-822 limits assumed): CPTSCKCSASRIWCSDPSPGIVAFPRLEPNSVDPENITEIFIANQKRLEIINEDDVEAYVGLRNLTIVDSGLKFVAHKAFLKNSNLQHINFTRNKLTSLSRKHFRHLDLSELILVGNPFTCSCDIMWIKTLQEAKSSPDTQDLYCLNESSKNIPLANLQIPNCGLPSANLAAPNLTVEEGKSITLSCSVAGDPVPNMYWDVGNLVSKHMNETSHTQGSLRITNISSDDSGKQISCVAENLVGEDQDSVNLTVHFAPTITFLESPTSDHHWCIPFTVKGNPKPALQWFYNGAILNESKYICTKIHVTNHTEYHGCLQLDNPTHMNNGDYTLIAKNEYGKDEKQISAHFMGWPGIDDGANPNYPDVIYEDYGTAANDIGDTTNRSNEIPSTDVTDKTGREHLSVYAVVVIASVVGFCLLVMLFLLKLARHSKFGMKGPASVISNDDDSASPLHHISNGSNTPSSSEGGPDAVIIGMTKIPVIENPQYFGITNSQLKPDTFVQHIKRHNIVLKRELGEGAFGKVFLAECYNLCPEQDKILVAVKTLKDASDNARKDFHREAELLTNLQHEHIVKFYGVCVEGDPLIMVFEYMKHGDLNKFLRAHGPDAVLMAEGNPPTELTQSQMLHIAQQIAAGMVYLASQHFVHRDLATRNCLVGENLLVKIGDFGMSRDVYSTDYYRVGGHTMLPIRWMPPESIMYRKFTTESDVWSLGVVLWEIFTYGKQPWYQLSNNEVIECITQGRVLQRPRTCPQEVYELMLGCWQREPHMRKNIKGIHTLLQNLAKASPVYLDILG
Chain of Angiopoietin-1 receptor (Homo sapiens) (Q02763 whole entry, the tested form may be a part): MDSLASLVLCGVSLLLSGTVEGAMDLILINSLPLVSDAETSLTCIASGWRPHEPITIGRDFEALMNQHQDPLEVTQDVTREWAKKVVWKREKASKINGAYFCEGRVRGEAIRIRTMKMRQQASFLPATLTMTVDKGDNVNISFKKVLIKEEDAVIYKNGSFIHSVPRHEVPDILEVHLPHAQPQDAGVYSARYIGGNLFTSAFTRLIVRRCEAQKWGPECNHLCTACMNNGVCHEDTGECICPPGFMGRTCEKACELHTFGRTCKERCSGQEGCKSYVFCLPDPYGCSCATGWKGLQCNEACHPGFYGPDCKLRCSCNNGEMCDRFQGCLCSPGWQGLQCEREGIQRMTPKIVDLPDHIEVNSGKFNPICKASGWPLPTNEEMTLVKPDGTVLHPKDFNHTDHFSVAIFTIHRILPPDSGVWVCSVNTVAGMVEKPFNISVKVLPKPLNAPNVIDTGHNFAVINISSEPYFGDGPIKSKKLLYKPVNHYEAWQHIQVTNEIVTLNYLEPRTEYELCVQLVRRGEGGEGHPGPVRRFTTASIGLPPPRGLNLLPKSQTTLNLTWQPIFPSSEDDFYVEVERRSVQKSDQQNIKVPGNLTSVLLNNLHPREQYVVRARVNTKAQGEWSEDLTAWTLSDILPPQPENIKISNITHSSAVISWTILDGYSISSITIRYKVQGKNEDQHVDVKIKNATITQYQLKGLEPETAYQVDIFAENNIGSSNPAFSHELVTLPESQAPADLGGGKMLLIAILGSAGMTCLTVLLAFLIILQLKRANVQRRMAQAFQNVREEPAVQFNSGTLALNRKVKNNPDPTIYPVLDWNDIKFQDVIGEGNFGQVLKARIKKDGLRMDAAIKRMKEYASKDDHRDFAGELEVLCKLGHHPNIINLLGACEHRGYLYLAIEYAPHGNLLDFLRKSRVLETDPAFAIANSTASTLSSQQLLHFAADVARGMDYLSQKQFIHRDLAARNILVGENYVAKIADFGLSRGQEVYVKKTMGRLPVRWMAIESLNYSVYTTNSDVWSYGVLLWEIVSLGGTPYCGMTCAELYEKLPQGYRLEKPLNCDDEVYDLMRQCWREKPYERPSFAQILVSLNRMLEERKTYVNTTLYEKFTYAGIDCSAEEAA

Row | solubility [1] | fraction unbound [2] | efflux ratio [3] | Papp A→B [4] | half-life [5] | IC50 [6] | fraction unbound [7] | fraction unbound [8] | fraction unbound [9] | half-life [10] | half-life [11] | half-life [12] | Structure (SMILES) | further results
1 | 37 µM (≈ 16.7 µg/mL) | 0.024 | 4.6 | 14 ×10⁻⁶ cm/s | 0.8 h | 3 nM | 0.028 | 0.029 | 0.028 | 7.92 h | 2.18 h | > 16.7 h | Cc1cc(NC(=O)[C@H](O)c2cc(F)cc(F)c2)ccc1-c1cnc(N)c(C(=O)NC2CC2)c1 | –
2 | – | – | – | – | – | – | – | – | – | – | – | – | Cc1cccc(CC(=O)N2CCc3c2ccc(-c2cn(C)c4ncnc(N)c24)c3F)n1 | Activity [13]: 0%; Activity [14]: 7%; Activity [15]: 0.2%; Activity [16]: 0%; Activity [17]: 1.3%; Activity [18]: 5.3%; Activity [19]: 0.1%; Activity [20]: 6.5%; Activity [21]: 8.2%; Activity [22]: 1.8%; Activity [23]: 5.3%; Activity [24]: 3.7%
3 | 31 µM (≈ 14.1 µg/mL) | 0.007 | 2 | 15 ×10⁻⁶ cm/s | 1.15 h | 4 nM | 0.017 | 0.014 | 0.024 | 4.08 h | 0.155 h | 3.12 h | Cc1cc(NC(=O)[C@H](O)c2cc(F)cc(F)c2)ccc1-c1cnc(N)c(C(=O)NC(C)C)c1 | bioavailability [25]: 49%; AUC(0-t) [26]: 2000 ng·h/mL; Cmax [27]: 1600 ng/mL; half-life [28]: 1.2 h
4 | 13 µM (≈ 6.17 µg/mL) | 0.003 | 2.5 | 24 ×10⁻⁶ cm/s | 0.4 h | 9 nM | 0.005 | 0.005 | 0.007 | 9.48 h | 0.2 h | 7.18 h | CC(C)NC(=O)c1cc(-c2ccc(NC(=O)[C@H](O)c3cc(F)cc(F)c3)cc2Cl)cnc1N | –
